Data from the supplement of paper PMC13380429.

Legend:
Details in all cases: 72 h
Vero E6 [1] = test: relative viability EC50 (midpoint between 100% and the lowest measured viability); higher = less toxic
Calu-3 [2] = test: as above
HepG2 [3] = test: as above
Caco-2 [4] = test: as above
U2OS [5] = test: as above
Vero E6 [6] = test: drug sensitivity score (DSS) for viability; higher = more toxic; extreme values may be limits of the assay
Calu-3 [7] = test: as above
HepG2 [8] = test: as above
Caco-2 [9] = test: as above
U2OS [10] = test: as above
Vero E6 [11] = test: cell viability relative to DMSO; higher = less toxic
Calu-3 [12] = test: as above
HepG2 [13] = test: as above
Caco-2 [14] = test: as above
U2OS [15] = test: as above

Row | SMILES | relative viability EC50 (Vero E6 [1]) [µM] | relative viability EC50 (Calu-3 [2]) [µM] | relative viability EC50 (HepG2 [3]) [µM] | relative viability EC50 (Caco-2 [4]) [µM] | relative viability EC50 (U2OS [5]) [µM] | drug sensitivity score (Vero E6 [6]) | drug sensitivity score (Calu-3 [7]) | drug sensitivity score (HepG2 [8]) | drug sensitivity score (Caco-2 [9]) | drug sensitivity score (U2OS [10]) | cell viability (Vero E6 [11]; 1 nM) [%] | cell viability (Vero E6 [11]; 10 nM) [%] | cell viability (Vero E6 [11]; 100 nM) [%] | cell viability (Vero E6 [11]; 1000 nM) [%] | cell viability (Vero E6 [11]; 10000 nM) [%] | cell viability (Calu-3 [12]; 1 nM) [%] | cell viability (Calu-3 [12]; 10 nM) [%] | cell viability (Calu-3 [12]; 100 nM) [%] | cell viability (Calu-3 [12]; 1000 nM) [%] | cell viability (Calu-3 [12]; 10000 nM) [%] | cell viability (HepG2 [13]; 1 nM) [%] | cell viability (HepG2 [13]; 10 nM) [%] | cell viability (HepG2 [13]; 100 nM) [%] | cell viability (HepG2 [13]; 1000 nM) [%] | cell viability (HepG2 [13]; 10000 nM) [%] | cell viability (Caco-2 [14]; 1 nM) [%] | cell viability (Caco-2 [14]; 10 nM) [%] | cell viability (Caco-2 [14]; 100 nM) [%] | cell viability (Caco-2 [14]; 1000 nM) [%] | cell viability (Caco-2 [14]; 10000 nM) [%] | cell viability (U2OS [15]; 1 nM) [%] | cell viability (U2OS [15]; 10 nM) [%] | cell viability (U2OS [15]; 100 nM) [%] | cell viability (U2OS [15]; 1000 nM) [%] | cell viability (U2OS [15]; 10000 nM) [%]
1 | Cc1[nH]c2ccccc2c1CCNCc1ccc(/C=C/C(=O)NO)cc1 [panobinostat] | 0.142 | 0.175 | 0.052 | 0.136 | 0.127 | 22.3 | 19.4 | 26.6 | 22.3 | 22.6 | 101 | 97.8 | 70.8 | -0.4 | -0.5 | 113 | 113 | 67.8 | 17.5 | 6 | 104 | 80.6 | 36.8 | -0.3 | -0.4 | 99.8 | 110 | 68.4 | 1 | 1.1 | 99.2 | 97 | 62.4 | 1.4 | 0.8
2 | C[N+]1(CCCCC[N+]2(C)CCCC2)CCCC1 [pentolinium] | > 10 | > 10 | > 10 | > 10 | > 10 | 0 | 0.3 | 0 | 0 | 0 | 96.3 | 105 | 102 | 101 | 108 | 97.1 | 91.2 | 110 | 94 | 88.1 | 79.4 | 99.3 | 96 | 112 | 97.6 | 99 | 109 | 124 | 107 | 88.7 | 94.2 | 98.7 | 100 | 99.2 | 102
3 | CC(=O)O[C@H]1C[C@@H]2CC[C@@H]3[C@H](CC[C@@]4(C)[C@H]3C[C@H](N3CC[N+](C)(C)CC3)[C@@H]4OC(C)=O)[C@@]2(C)C[C@@H]1N1CC[N+](C)(C)CC1 [pipecuronium] | > 10 | > 10 | > 10 | > 10 | > 10 | 0 | 0 | 0 | 0 | 0 | 100 | 94.7 | 92.5 | 95.5 | 99.2 | 87.8 | 102 | 90.2 | 111 | 96.7 | 97.8 | 94.2 | 97.4 | 96.8 | 92.3 | 93.7 | 103 | 91.2 | 96.7 | 97 | 101 | 104 | 97.7 | 105 | 96.9
4 | C#CCC(Cc1cnc2nc(N)nc(N)c2n1)c1ccc(C(=O)N[C@@H](CCC(=O)O)C(=O)O)cc1 (stereo not given in full) [pralatrexate] | 0.0036 | > 10 | 0.0038 | 0.0164 | > 10 | 36.7 | 0.8 | 35.4 | 16.7 | 0 | 98.9 | 19.2 | 14.4 | 16.7 | 14.2 | 107 | 102 | 91.4 | 88.2 | 93.6 | 99.2 | 22.9 | 21.3 | 17.8 | 17.1 | 97 | 81.8 | 55.3 | 49.6 | 56.2 | 105 | 76.8 | 97.2 | 90 | 98.6
5 | C[C@]12C=CC(=O)C=C1CC[C@@H]1[C@@H]2[C@@H](O)C[C@@]2(C)[C@H]1CC[C@]2(O)C(=O)COP(=O)(O)O [prednisolone-sodium-phosphate] | > 10 | > 10 | > 10 | > 10 | > 10 | 0 | 0 | 0 | 0 | 0 | 102 | 103 | 108 | 101 | 89.6 | 97.4 | 92.7 | 101 | 82.5 | 106 | 100 | 100 | 104 | 99.2 | 100 | 99.6 | 89.5 | 98.4 | 92.8 | 91.7 | 95.1 | 105 | 97.9 | 90.8 | 97
6 | COCCOc1ccc(N2CCN(CCn3ncc4c3nc(N)n3nc(-c5ccco5)nc43)CC2)cc1 [preladenant] | > 10 | > 10 | > 10 | > 10 | > 10 | 0 | 0 | 0 | 0 | 0 | 91.2 | 99.5 | 97.7 | 102 | 99.6 | 106 | 112 | 97.2 | 92.3 | 107 | 97 | 105 | 94 | 99.6 | 93.2 | 98.1 | 99 | 98.1 | 91.8 | 93.1 | 97.6 | 101 | 95.3 | 95.1 | 96.9
7 | CC[N+](C)(CC)CCC[n+]1c(-c2ccccc2)c2cc(N)ccc2c2ccc(N)cc21 [propidium-iodide] | > 10 | > 10 | > 10 | > 10 | > 10 | 0 | 0 | 1.2 | 1.5 | 0.3 | 96.8 | 99.5 | 98.3 | 96 | 95.7 | 100 | 99.6 | 102 | 104 | 92.3 | 93.8 | 104 | 90.8 | 90.4 | 80.1 | 91.3 | 99.2 | 93.1 | 95.3 | 75.7 | 99.2 | 103 | 98.4 | 99.8 | 83.7
8 | NC(=O)c1cnccn1 [pyrazinamide] | > 10 | > 10 | > 10 | > 10 | > 10 | 0 | 0 | 0 | 0 | 0 | 105 | 93.5 | 106 | 95.3 | 104 | 99.5 | 100 | 94.2 | 104 | 93 | 103 | 103 | 105 | 97.9 | 103 | 104 | 120 | 92.8 | 107 | 89.8 | 93.7 | 101 | 98 | 104 | 96
9 | O=C(O)c1cccnc1C(=O)O [quinolinic-acid] | > 10 | > 10 | > 10 | > 10 | > 10 | 0 | 0 | 0 | 0 | 0 | 108 | 97.4 | 108 | 99.2 | 102 | 91.5 | 105 | 97.1 | 100 | 101 | 105 | 99.5 | 97.6 | 102 | 97.8 | 103 | 110 | 96.8 | 103 | 90.3 | 98.2 | 103 | 98.6 | 102 | 97.7
10 | COC(=O)[C@H]1[C@H]2C[C@@H]3c4[nH]c5cc(OC)ccc5c4CCN3C[C@H]2C[C@@H](OC(=O)c2cc(OC)c(OC)c(OC)c2)[C@@H]1OC [reserpine] | > 10 | > 10 | > 10 | > 10 | > 10 | 0 | 0 | 0 | 0 | 0 | 112 | 95.2 | 96.6 | 104 | 97.1 | 107 | 92.5 | 109 | 102 | 111 | 106 | 93.5 | 81.3 | 96 | 96.6 | 110 | 90.1 | 96.4 | 91.9 | 101 | 98 | 97.7 | 95.8 | 94.8 | 99.2
11 | COc1cc(O)c2c(c1)C(=O)c1cc(C)cc(O)c1C2=O [rheochrysidin] | > 10 | > 10 | > 10 | > 10 | > 10 | 0 | 0 | 0 | 0 | 0 | 98.9 | 102 | 98.5 | 98.8 | 101 | 101 | 104 | 105 | 101 | 96.8 | 92.7 | 106 | 108 | 107 | 109 | 100 | 109 | 97.9 | 96.9 | 93.5 | 93.4 | 98.8 | 101 | 100 | 93.5
12 | C1COC(NC(C2CC2)C2CC2)=N1 [rilmenidine] | > 10 | > 10 | > 10 | > 10 | > 10 | 0 | 0 | 0 | 0 | 0 | 95.9 | 99.1 | 95.3 | 101 | 97.4 | 98.6 | 82.1 | 109 | 95.8 | 105 | 99.3 | 110 | 97.2 | 100 | 103 | 103 | 100 | 103 | 93.4 | 104 | 104 | 97 | 108 | 98.2 | 104
13 | CC(C)c1nc(CN(C)C(=O)N[C@H](C(=O)N[C@@H](Cc2ccccc2)C[C@H](O)[C@H](Cc2ccccc2)NC(=O)OCc2cncs2)C(C)C)cs1 [ritonavir] | > 10 | > 10 | > 10 | > 10 | > 10 | 0 | 0 | 0 | 0.8 | 0 | 94.4 | 97.5 | 89.4 | 102 | 108 | 102 | 87 | 93.7 | 102 | 98.6 | 98.6 | 104 | 94 | 107 | 110 | 97.8 | 94.3 | 96.3 | 100 | 77.5 | 105 | 97.5 | 98 | 94.5 | 95.4
